# US20250177366A1, “COMPOSITIONS AND METHODS FOR ALLEVIATING PAIN AND REDUCING ADVERSIVENESS OF STIMULI” (UNIVERSITY OF WASHINGTON, priority 2021, published 2025)
# Key:
# [1] = tested on: larval zebrafish; experiment: AITC aversion assay (chemical attraction/aversion, AITC-infused agarose); assay type: in vivo, Zebrafish (Danio rerio); settings: AITC 100 mM in agarose
# Description: Whether the effects of AS1 extended beyond noxious temperature sensation or could also impact other somatosensory modalities was next explored. To accomplish this, a chemical attraction/aversion assay where a thin layer of agarose was deposited along the edges of a square arena (Jordi et al., Sci. Adv. 2018; 4:1-15) were adapted. Along one wall, the agarose contained the chemical to be tested, while the other three walls were lined with control agarose. It was anticipated that a chemical gradient would be established as chemical diffused from the agarose into the surrounding water. Larvae were pre-incubated in either vehicle or AS1 and then added to the arena and the distance of each larva from the chemical-infused agarose was measured. In control experiments where all four walls of the arena were lined with agarose only, AS1 and vehicle-treated larvae were dispersed evenly throughout the arena (FIG. 3). […] When the nociceptive chemical AITC (100 mM, 10,000× maximal effective dose) was tested, vehicle-treated larvae swam away from the AITC source.
# Chemical attraction/aversion assays. The agarose attraction/aversion assay was adapted from previously described experiments (Jordi et al., Sci. Adv. 2018; 4:1-15). For the AITC aversion assay, AITC and DMSO were added to molten 0.8% agarose to achieve a final concentration of 100 mM AITC and 2% DMSO. For the AS1 attraction/aversion assay, AS1 and DMSO were added to 0.8% molten agar to achieve final concentrations of 50 mM and 2%, respectively. To construct the test chambers, the lids of 10×10 cm square petri dishes (insert cat #and company) were lined on four sides with either the test (chemical-containing) or plain agarose (300 μL per side) and allowed to solidify. For all experiments, 30-40 randomly selected 6 dpf zebrafish were caught with a 10 mL pipette pump (Bel-Air Products, cat #: 13683C) equipped with a glass wide-bored Pasteur pipet (Fisher Scientific, cat #: 22-037-540) and deposited into a standard 10 cm diameter petri dish (Fisher Scientific, cat #: 07-202-031). As much E2 media as possible was carefully removed using the same pipette. For single incubation experiments, 30 mL of 1× solutions of the control or test chemical was added to each petri dish, and fish were incubated for 10 minutes at 28.5° C. For double incubation experiments, 15 mL of 1× solutions containing control (DMSO) or test chemicals was added to the larvae-containing petri dish. Following a ten minute incubation, 15 mL of the second incubation solution (1× control or test chemical +/−2× AS1) was added to the petri dish, and the fish were incubated for a second ten minute block. The final concentration of DMSO in all solutions was 1%. In all double-incubation experiments, the final concentration of AS1 was 5 μM unless otherwise noted. After completion of the last incubation period, the contents of each petri dish were poured into separate agarose-lined square dishes. Swimming behavior was immediately recorded for 20 minutes using the same high-definition camcorder in the thermal preference assays.
# [2] = tested on: larval zebrafish; experiment: Sensitized thermal aversion assay (28.5° vs 31.5° C. after AITC), small molecule screen; assay type: in vivo, Zebrafish (Danio rerio); settings: 10 min incubation then AITC 0.5 μM
# Description: The Novel Analgesic AS1 reverses the valence of normally aversive stimuli. In a previously published study, a novel high throughput temperature discrimination assay utilizing larval zebrafish that modeled acute and sensitized temperature aversion were developed (FIG. 1A) (Curtright et al., PLoS One. 2015; 10:1-18). […] Also shown is that multiple small molecule analgesics could reverse acute and/or sensitized thermal aversion while non-analgesics could not.
# Using the sensitized thermal aversion assay, a small molecule library was screened in order to identify targets in pain transduction pathways and potential entry points for therapeutic intervention. The compounds were selected from Chembridge's CNS-Set (https://www.chembridge.com), which consists of small molecules selected for blood brain barrier penetration and oral bioavailability. Compounds were selected from across the library to maximize the diversity of molecules screened. Small molecules were initially pooled (8 per pool) to maximize screening efficiency. […]
# Thermal preference assay. […] Locomotor behavior was recorded using a Canon high-definition video camcorder suspended at a fixed position above the choice testing plate. […]
smiles,measurement,setting,value
"CC(C)c1ccc(C(=O)Nc2ccncc2)cc1 [AS1, 4-propan-2-yl-N-pyridin-4-ylbenzamide]",attraction/aversion to AITC source,[1]; 1 μM AS1,unable to induce attraction to AITC
same,attraction/aversion to AITC source,[1]; 2.5 μM AS1,largely replicated the effects of 5 μM AS1
same,attraction/aversion to AITC source,[1]; 5 μM AS1,strongly preferred to be near the AITC source
same,sensitized thermal aversion / place preference,[2],induced place preference for the noxious zone
